Legend:
[1] = Inhibition of human platelet cAMP phosphodiesterase
[2] = Inhibition of rat bladder dome cGMP phosphodiesterase
[3] = Inhibition of rat bladder dome cAMP phosphodiesterase

NC1=NC(=O)C2N=CN([C@@H]3O[C@@H]4COP(=O)(O)O[C@H]4[C@H]3OC(=O)c3ccc(C(=O)c4ccccc4)cc3)C2=N1 (stereo partly drawn)
IC50 [1]: 3.4 µM | IC50 [2]: 0.3 µM | IC50 [3]: 15.8 µM
